Here are results for eleven compounds from patent publication US11053230B2, “3-hydroxy-imidazolidin-4-one compounds as inhibitors of indoleamine 2,3-dioxygenase” (Netherlands Translational Research Center B.V., priority 2017, dated 2021).

pIC50: −log10 of the molar value. Some results are limits rather than exact numbers.

One data set deals with influenza virus. The settings on record: influenza virus-infected mice; cited from earlier work.
The subject of a further data set is lung carcinoma. The settings on record: syngeneic mouse lung carcinoma model and transgenic mouse model; cited from earlier work.
The subject of data set [1] is melanoma and glioblastoma. The settings on record: mouse tumor models for melanoma and glioblastoma; cited from earlier work.
The next data set deals with Leishmania major. The settings on record: in vivo; cited from earlier work.
The test system of data set [2] is IDO1 expressed in mouse tumor cells. The settings on record: pre-immunized mice; cited from earlier work.
The next data set concerns the target T1, IDO1 (Homo sapiens, UniProt P14902).
T1 construct: Recombinant full-length IDO1 (Seegers, N., et al.) and all other assay components were diluted in IDO1 reaction buffer; made in house
The experiment in a line: Biochemical IDO1 assay (NFK GreenScreen). The settings on record: NFK GreenScreen; 25 nM IDO1, 100 μM L-tryptophan; read-out: IC50, inhibitory potency on IDO1. A digest of the protocol: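 Recombinant full-length IDO1 in 50 mM NaH2PO4 pH 7.0 with 0.05% Tween-20 and 1% glycerol converted 100 μM L-tryptophan (final) over 60 min at room temperature with compound, 0.3% DMSO.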

Data set [3] has as its target tryptophan 2,3-dioxygenase (TDO) (Homo sapiens, UniProt P48775). The settings on record: biochemical assays; cited from earlier work.
For a further data set, the system named is melanoma. The settings on record: mouse model for melanoma; cited from earlier work.
The subject of a further data set is colon cancer. To be noted: mouse model for colon cancer; cited from earlier work.
For data set [4] the following is noted: randomized, open-label, phase 2, ovarian cancer patients; cited from earlier work.
A further data set concerns plasma kynurenine levels. To be noted: phase 1, advanced solid malignancies, all doses; cited from earlier work.

T1 sequence (P14902 whole entry): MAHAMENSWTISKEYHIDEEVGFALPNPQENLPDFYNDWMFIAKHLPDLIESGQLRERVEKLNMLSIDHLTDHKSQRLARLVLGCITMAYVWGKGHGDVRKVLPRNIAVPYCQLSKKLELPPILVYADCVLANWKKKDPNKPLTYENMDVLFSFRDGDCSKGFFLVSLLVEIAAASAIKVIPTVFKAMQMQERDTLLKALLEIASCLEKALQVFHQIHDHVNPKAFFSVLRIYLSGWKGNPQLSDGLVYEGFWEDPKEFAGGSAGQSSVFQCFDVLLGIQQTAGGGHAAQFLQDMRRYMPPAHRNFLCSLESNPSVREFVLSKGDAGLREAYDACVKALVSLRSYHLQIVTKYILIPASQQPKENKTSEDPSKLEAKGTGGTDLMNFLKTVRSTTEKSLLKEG
tryptophan 2,3-dioxygenase (TDO), sequence (P48775 whole entry, species assumed): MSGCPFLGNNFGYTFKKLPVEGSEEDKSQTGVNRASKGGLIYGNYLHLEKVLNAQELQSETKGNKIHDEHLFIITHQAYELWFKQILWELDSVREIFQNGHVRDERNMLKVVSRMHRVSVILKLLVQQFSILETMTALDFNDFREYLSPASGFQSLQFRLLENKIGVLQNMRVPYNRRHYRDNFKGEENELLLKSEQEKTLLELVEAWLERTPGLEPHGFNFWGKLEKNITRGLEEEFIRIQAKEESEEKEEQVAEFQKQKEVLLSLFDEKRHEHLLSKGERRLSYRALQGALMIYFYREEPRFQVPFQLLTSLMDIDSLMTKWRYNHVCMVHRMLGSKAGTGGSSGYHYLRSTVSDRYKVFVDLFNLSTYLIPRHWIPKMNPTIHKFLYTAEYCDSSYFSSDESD

As to `Cn1cc(C[C@H](N)C(=O)O)c2ccccc21` [Example 1-MT, 1-methyl-L-tryptophan], in the data set on influenza virus, the “T cell response against the virus” value was “enhanced T cell response against the virus”. Besides, the “efficacy of a cancer vaccine in combination” value in the data set on lung carcinoma is “increased the efficacy of a cancer vaccine”. In addition, in data set [1], the “efficacy of PD-1 and CTLA4 antibodies in combination” value is “increased the efficacy of antibodies”. The parasite burden entry in the data set on Leishmania major is “reduced the parasite burden”. Further, in [2], the “reversal of IDO1-mediated prevention of tumor cell rejection” value is “this effect could be reverted”.

With `C=Cc1ccc(F)c(C(=O)N2CC(=O)N(O)C2c2cc(Br)cs2)c1F` (stereo not shown) [Example 128, 2-(4-Bromo-2-thienyl)-1-(2,6-difluoro-3-vinyl-benzoyl)-3-hydroxy-imidazolidin-4-one], at IDO1, the pIC50 (usually −log10 of the IC50, conventionally taken in molar units) is no less than 6.00.

For the compound `CC(=O)NCC#Cc1cc(F)c(C(=O)N2CC(=O)N(O)C2c2cc(Br)cs2)c(F)c1` (stereo not shown) [Example 130, N-[3-[4-[2-(4-Bromo-2-thienyl)-3-hydroxy-4-oxo-imidazolidine-1-carbonyl]-3,5-difluoro-phenyl]prop-2-ynyl]acetamide], on IDO1, the pIC50 was no less than 6.00.

With `O=C1CN(C(=O)c2c(F)ccc(-c3cccs3)c2F)C(c2cc(Br)cs2)N1O` (stereo not shown) [Example 131, 2-(4-Bromo-2-thienyl)-1-[2,6-difluoro-3-(2-thienyl)benzoyl]-3-hydroxy-imidazolidin-4-one], the pIC50 on IDO1 was no less than 6.00.

As to `O=C1CN(C(=O)c2c(F)ccc(-c3ccc(F)s3)c2F)C(c2cc(Br)cs2)N1O` (stereo not shown) [Example 132, 2-(4-Bromo-2-thienyl)-1-[2,6-difluoro-3-(5-fluoro-2-thienyl)benzoyl]-3-hydroxy-imidazolidin-4-one], at IDO1, the pIC50 is no less than 6.00.

Regarding `Cc1ccccc1-c1ccc(F)c(C(=O)N2CC(=O)N(O)C2c2cc(Br)cs2)c1F` (stereo not shown) [Example 133, 2-(4-Bromo-2-thienyl)-1-[2,6-difluoro-3-(o-tolyl)benzoyl]-3-hydroxy-imidazolidin-4-one], the pIC50 at IDO1 is no less than 6.00.

On to `O=C1CN(C(=O)c2c(F)ccc(-c3cccc4ccccc34)c2F)C(c2cc(Br)cs2)N1O` (stereo not shown) [Example 134, 2-(4-Bromo-2-thienyl)-1-[2,6-difluoro-3-(1-naphthyl)benzoyl]-3-hydroxy-imidazolidin-4-one], for which, on IDO1, the pIC50 was no less than 6.00.

Consider `O=C1CN(C(=O)c2c(F)ccc(-c3ccc4ccccc4c3)c2F)C(c2cc(Br)cs2)N1O` (stereo not shown) [Example 135, 2-(4-Bromo-2-thienyl)-1-[2,6-difluoro-3-(2-naphthyl)benzoyl]-3-hydroxy-imidazolidin-4-one], for which the pIC50 on IDO1 was no less than 6.00.

Turning to `O=C1CN(C(=O)c2c(F)ccc(-c3ccc(F)cc3)c2F)C(c2cc(Br)cs2)N1O` (stereo not shown) [Example 136, 2-(4-Bromo-2-thienyl)-1-[2,6-difluoro-3-(4-fluorophenyl)benzoyl]-3-hydroxy-imidazolidin-4-one], on IDO1, the pIC50 was no less than 6.00.

For `Nc1nonc1C(=NO)Nc1ccc(F)c(Cl)c1` [compound 51, 4-amino-N-(3-chloro-4-fluorophenyl)-N′-hydroxy-1,2,5-oxadiazole-3-carboximidamide], in data set [3], the “inhibition of TDO activity” value is “inhibit the activity of tryptophan 2,3-dioxygenase (TDO)”. The tumor growth entry in the data set with melanoma and in the data set on colon cancer was “reduction of tumor growth” throughout.

Regarding `NS(=O)(=O)NCCNc1nonc1C(=NO)Nc1ccc(F)c(Br)c1` [epacadostat], the tolerability result in data set [4] is recorded as “generally well tolerated”. For the same compound, the plasma kynurenine levels result with plasma kynurenine levels is on record as “significant dose-dependent reductions”. The tumor growth entry in the data set with colon cancer is recorded as “further reduction of tumor growth”.
